Consider 16 compounds from US11795171B2, “Pyrrolotriazinones and imidazotriazinones as ubiquitin-specific protease 7 inhibitors” (Valo Health, Inc., priority 2014, dated 2023).

Broadly, the IC50 is the point on the concentration scale where inhibition reaches its midpoint. High values mean lower potency, low ones higher potency.

SMILES strings stand for the structures. Where only a bound is given, the exact number is not on record here.

The target in experiment [1] is T1, USP7 (Homo sapiens (Human), UniProt Q93009). The experiment is described as follows: USP7 Assay A (Ubitquin-Rhodamine110 Assay). The class given is biochemical. The settings on record: Ub-Rh110 substrate 25 nM. How it is done: Each assay was performed in a final volume of 15 μL in assay buffer containing 20 mM Tris-HCl (pH 8.0, (1M Tris-HCl, pH 8.0 solution; Corning 46-031-CM)), 1 mM GSH (L-Glutathione reduced: Sigma #G4251), 0.03% BGG ([…], Sigma, #G7516-25G), and 0.01% Triton X-100 (Sigma, #T9284-10L). Nanoliter quantities of either an 8-point or 10-point, 3-fold serial dilution in DMSO was pre-dispensed into assay plates (Perkin Elmer, ProxiPlate-384 F Plus, #6008269) for a final test concentration range of either 25 μM to 11 nM or 25 μM to 1.3 nM, respectively. The final concentration of the enzyme (USP7, construct USP7 (208-1102) 6*His, Viva Biotech) in the assay was […]. […] 5 μL of 2× enzyme was added to assay plates (pre-stamped with compound) preincubated with USP7 for 30 minutes and then 5 μL of 2×Ub-Rh110 was added to assay plates. Plates were incubated stacked for 20 minutes at room temperature before 5 μL of stop solution (final concentration of 10 mM citric acid in assay buffer (Sigma, #251275-500G)). Fluorescence was read on the Envision (Excitation at 485 nm and Emission at 535 nm; Perkin Elmer) or on the PheraSTAR (Excitation at 485 nm and Emission at 535 nm; BMG Labtech).
Data from USP7 Assays A and B were reported as percent inhibition (inh) compared with control wells based on the following equation: % inh=1−((FLU−AveLow)/(AveHigh−AveLow)) where FLU=measured Fluorescence (See Tables 2 and 3). AveLow=average Fluorescence of no enzyme control (n=16). AveHigh=average Fluorescence of DMSO control (n=16). IC50 values were determined by curve fitting of the standard 4 parameter logistic fitting algorithm included in the Activity Base software package: IDBS XE Designer Model205. Data is fitted using the Levenburg Marquardt algorithm. IC50 data from USP7 Assays A and B for the compounds of the invention can be found in Tables 2 and 3.

Experiment [2] has as its target T1, USP7. As to the kind of experiment: USP7 Assay B (Ubitquin-Rhodamine110 Assay). The class given is biochemical. As to conditions: Ub-Rh110 substrate 25 nM.

T1 sequence (Q93009 208-1102): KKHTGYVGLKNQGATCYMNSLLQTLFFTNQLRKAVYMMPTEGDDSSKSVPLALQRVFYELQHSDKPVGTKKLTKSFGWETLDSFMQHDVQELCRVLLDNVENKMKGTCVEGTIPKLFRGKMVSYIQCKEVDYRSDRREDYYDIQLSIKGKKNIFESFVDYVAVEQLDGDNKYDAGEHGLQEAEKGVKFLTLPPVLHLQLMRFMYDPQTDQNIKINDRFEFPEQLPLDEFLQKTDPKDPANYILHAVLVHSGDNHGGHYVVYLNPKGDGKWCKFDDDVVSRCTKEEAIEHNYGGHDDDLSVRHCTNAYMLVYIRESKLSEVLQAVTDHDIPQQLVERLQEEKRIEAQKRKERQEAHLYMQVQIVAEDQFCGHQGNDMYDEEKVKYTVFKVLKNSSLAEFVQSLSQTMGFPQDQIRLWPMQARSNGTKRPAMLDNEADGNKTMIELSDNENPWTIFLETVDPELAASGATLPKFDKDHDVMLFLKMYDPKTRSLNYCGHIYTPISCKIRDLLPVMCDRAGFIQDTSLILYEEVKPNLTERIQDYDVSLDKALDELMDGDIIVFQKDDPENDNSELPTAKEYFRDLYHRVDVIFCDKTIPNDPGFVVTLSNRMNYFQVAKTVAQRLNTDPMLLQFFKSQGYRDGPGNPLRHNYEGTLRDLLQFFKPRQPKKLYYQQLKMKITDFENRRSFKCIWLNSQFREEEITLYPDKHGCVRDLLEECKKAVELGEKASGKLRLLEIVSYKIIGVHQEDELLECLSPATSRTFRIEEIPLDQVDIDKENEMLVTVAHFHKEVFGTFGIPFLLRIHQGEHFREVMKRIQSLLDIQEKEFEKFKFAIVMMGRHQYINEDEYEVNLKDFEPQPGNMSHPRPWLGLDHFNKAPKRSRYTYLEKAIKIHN

As to `Cc1ccc(-c2ncc3c(=O)n(CC4(O)CCN(C(=O)CC(C)n5cccn5)CC4)cnn23)cc1` (racemic) [Compound I-119, 3-([4-Hydroxy-1-[3-(1H-pyrazol-1-yl)butanoyl]piperidin-4-yl]methyl)-7-(4-methylphenyl)-3H,4H-imidazo[4,3-f][1,2,4]triazin-4-one], at USP7 [1], the IC50 is 1 to 10 µM.
Turning to `Cc1ccc(C)c(C(=O)Nc2cc3c(=O)n(CC4(O)CCN(C(=O)C5CC5)CC4)cnn3c2)c1` [Compound I-109, N-(3-((1-(cyclopropanecarbonyl)-4-hydroxypiperidin-4-yl)methyl)-4-oxo-3,4-dihydropyrrolo[2,1-f][1,2,4]triazin-6-yl)-2,5-dimethylbenzamide], the IC50 against USP7 [2] was > 10 µM.
Same read-out and setting: as for `O=C(Nc1cc2c(=O)n(CC3(O)CCN(C(=O)C4CC4)CC3)cnn2c1)c1ccccc1OC(F)(F)F` [Compound I-110, N-(3-((1-(cyclopropanecarbonyl)-4-hydroxypiperidin-4-yl)methyl)-4-oxo-3,4-dihydropyrrolo[2,1-f][1,2,4]triazin-6-yl)-2-(trifluoromethoxy)benzamide], the figure is > 10 µM; as for `O=C(Nc1cc2c(=O)n(CC3(O)CCN(C(=O)C4CC4)CC3)cnn2c1)c1ccc(Cl)cc1Cl` [Compound I-111, 2,4-dichloro-N-(3-((1-(cyclopropanecarbonyl)-4-hydroxypiperidin-4-yl)methyl)-4-oxo-3,4-dihydropyrrolo[2,1-f][1,2,4]triazin-6-yl)benzamide], > 10 µM.
Compound `O=C(Nc1cc2c(=O)n(CC3(O)CCN(C(=O)C4CC4)CC3)cnn2c1)c1csc(-c2ccccc2)n1` [Compound I-112, N-(3-((1-(cyclopropanecarbonyl)-4-hydroxypiperidin-4-yl)methyl)-4-oxo-3,4-dihydropyrrolo[2,1-f][1,2,4]triazin-6-yl)-2-phenylthiazole-4-carboxamide] gave an IC50 at USP7 [2] of 1 to 10 µM.
Still for that read-out and setting: as for `CC(CC(=O)Nc1cc2c(=O)n(CC3(O)CCN(C(=O)C4CC4)CC3)cnn2c1)c1ccc(Cl)cc1` (stereo not shown) [Compound I-113, 3-(4-chlorophenyl)-N-(3-((1-(cyclopropanecarbonyl)-4-hydroxypiperidin-4-yl)methyl)-4-oxo-3,4-dihydropyrrolo[2,1-f][1,2,4]triazin-6-yl)butanamide], the figure is > 10 µM; as for `C=C(C)C(=O)Nc1ccccc1-c1ccc(C(=O)N2CCC(O)(Cn3cnn4cccc4c3=O)CC2)cc1` [Compound I-114, N-(4′-(4-hydroxy-4-((4-oxopyrrolo[2,1-f][1,2,4]triazin-3(4H)-yl)methyl)piperidine-1-carbonyl)-[1,1′-biphenyl]-2-yl)methacrylamide], 1 to 10 µM; as for `O=C(c1ccccc1)N1CCC(O)(Cn2cnn3c(-c4ccccc4)ncc3c2=O)CC1` [Compound I-115, 3-((1-benzoyl-4-hydroxypiperidin-4-yl)methyl)-7-phenylimidazo[5,1-f][1,2,4]triazin-4(3H)-one], 1 to 10 µM.
On to `O=C(c1ccc(F)cc1)N1CCC(O)(Cn2cnn3c(-c4ccc(F)cc4)ncc3c2=O)CC1` [Compound I-116, 3-((1-(4-fluorobenzoyl)-4-hydroxypiperidin-4-yl)methyl)-7-(4-fluorophenyl)imidazo[5,1-f][1,2,4]triazin-4(3H)-one], for which the IC50 at USP7 [1] was > 10 µM.
`Cc1ccc(-c2ncc3c(=O)n(CC4(O)CCN(C(=O)c5ccc(F)cc5)CC4)cnn23)cc1` [Compound I-117, 3-((1-(4-fluorobenzoyl)-4-hydroxypiperidin-4-yl)methyl)-7-p-tolylimidazo[1,5-f][1,2,4]triazin-4(3H)-one] came in with an IC50 at USP7 [1] of 1 to 10 µM.
Same read-out and setting: as for `Cc1ccc(-c2ncc3c(=O)n(CC4(O)CCN(C(=O)C[C@H](C)n5cccn5)CC4)cnn23)cc1` [Compound I-120, (S)-3-((1-(3-(1H-pyrazol-1-yl)butanoyl)-4-hydroxypiperidin-4-yl)methyl)-7-(p-tolyl)imidazo[5,1-f][1,2,4]triazin-4(3H)-one], the figure is 1 to 10 µM; as for `Cc1ccc(-c2ncc3c(=O)n(CC4(O)CCN(C(=O)C[C@@H](C)n5cccn5)CC4)cnn23)cc1` [Compound I-121, (R)-3-((1-(3-(1H-pyrazol-1-yl)butanoyl)-4-hydroxypiperidin-4-yl)methyl)-7-(p-tolyl)imidazo[5,1-f][1,2,4]triazin-4(3H)-one], > 10 µM; as for `O=C(c1cnc(C2CC2)o1)N1CCC(O)(Cn2cnn3c(-c4ccc(F)cc4)ncc3c2=O)CC1` [Compound I-122, 3-((1-(2-cyclopropyloxazole-5-carbonyl)-4-hydroxypiperidin-4-yl)methyl)-7-(4-fluorophenyl)imidazo[5,1-f][1,2,4]triazin-4(3H)-one], 1 to 10 µM.
`O=C(c1ccc(-n2cccn2)cc1)N1CCC(O)(Cn2cnn3c(-c4ccc(F)cc4)ncc3c2=O)CC1` [Compound I-123, 3-((1-(4-(1H-pyrazol-1-yl)benzoyl)-4-hydroxypiperidin-4-yl)methyl)-7-(4-fluorophenyl)imidazo[5,1-f][1,2,4]triazin-4(3H)-one] registered an IC50 at USP7 [1] of 1 to 10 µM.
Same read-out and setting: as for `Cc1ccc(C(=O)N2CCC(O)(Cn3cnn4c(-c5ccc(F)cc5)ncc4c3=O)CC2)cc1` [Compound I-124, 7-(4-fluorophenyl)-3-((4-hydroxy-1-(4-methylbenzoyl)piperidin-4-yl)methyl)imidazo[5,1-f][1,2,4]triazin-4(3H)-one], the figure is > 10 µM; as for `Cc1ccc(C(=O)N2CCC(O)(Cn3cnn4c(-c5ccc(F)cc5)ncc4c3=O)CC2)cc1F` [Compound I-125, 3-((1-(3-fluoro-4-methylbenzoyl)-4-hydroxypiperidin-4-yl)methyl)-7-(4-fluorophenyl)imidazo[5,1-f][1,2,4]triazin-4(3H)-one], > 10 µM.
